From US12275712B2, “Triterpene derivatives as HIV inhibitors” (HETERO LABS LIMITED, priority 2019, dated 2025)

How the values were obtained:
HIV-1 strain 92HT599 = assay: Antiviral activity against HIV-1 strain 92HT599 in MT2 cells (p24 estimation); format: cell-based; conditions: Human immunodeficiency virus 1; HIV-1 strain 92HT599, MT2 cells, ~96 hours, p24; read-out: IC50
Method: MT2 cells were infected with HIV-1 strain 92HT599 (10 TCID 50/30000 cells). The infected cells were plated at the concentration of ˜30,000 cells per well in 96 well plate. Test compound was added to the micro plate in defined format with the final concentration of DMSO (vehicle) is not more than 1%. Incubation was carried out in CO2 incubator for ˜96 hours for viral infection. At the end of incubation period an aliquot from each well was taken for p24 estimation. The quantitation of p24 is an index for antiviral activity of the compound. Percent inhibition was calculated with reference to control values (vehicle controls). p24 estimation was carried out using Advance biosciences kit as per the procedure detailed by supplier.
The IC50 (nM) values are set forth in below Table-1.

pNL4-3 WT = assay: Antiviral activity against pNL4-3 WT strain in MT4 cells (p24 estimation); format: cell-based, HIV-1; conditions: Human immunodeficiency virus 1, MT4, 96 h, read-out: pNL4-3 WT IC50
Method: (§1) MT4 cells were Transfected with HIV-1 Plasmid (pNL4-3-WT & V7A) (Cells were incubating with required number of TCID50 of HIV-1 for 1.5 h at 37° C.). After infection, the infected cells were plated at the concentration of 3×10^4 cells per well in 96 well plate. Test compound was added to the test plate in defined format with the final concentration of DMSO is not more than 1%. Incubation was carried out in CO2 incubator for 4 days for viral infection. At the end of incubation period an aliquot from each well was taken for p24 estimation. p24 estimation was carried out using Advance biosciences kit as per the procedure detailed by supplier.

pNL4-3 V7A = assay: Antiviral activity against pNL4-3 V7A strain in MT4 cells (p24 estimation); format: cell-based, HIV-1; conditions: Human immunodeficiency virus 1, MT4, 96 h, read-out: pNL4-3 V7A IC50
Method: as §1

| Structure (SMILES) | IC50 (HIV-1 strain 92HT599) [nM] | IC50 (pNL4-3 WT) [nM] | IC50 (pNL4-3 V7A) [nM] |
| --- | --- | --- | --- |
| C[C@H](F)[C@@H](CN[C@]12CC[C@@H](C3(C)CC3)[C@@H]1[C@H]1CC[C@@H]3[C@@]4(C)CC[C@H](OC(=O)[C@H]5C[C@@H](C(=O)O)C5(C)C)C(C)(C)[C@@H]4CC[C@@]3(C)[C@]1(C)CC2)N1CCS(=O)(=O)CC1 [Example 12, (1R,3S)-3-((((1R,3aS,5aR,5bR,7aR,9S,11aR,11bR,13aR,13bR)-3a-(((2R,3 S)-2-(1,1-dioxidothiomorpholino)-3-fluorobutyl)amino)-5a,5b,8,8,11a-pentamethyl-1-(1-methylcyclopropyl)icosahydro-1H-cyclopentachrysen-9-yl)oxy)carbonyl)-2,2-di methylcyclobutane-1-carboxylic acid] | > 20 | 10 to 50 | > 100 |
| C[C@H](O)[C@H](CN[C@]12CC[C@@H](C3(C)CC3)[C@@H]1[C@H]1CC[C@@H]3[C@@]4(C)CC[C@H](OC(=O)[C@H]5C[C@@H](C(=O)O)C5(C)C)C(C)(C)[C@@H]4CC[C@@]3(C)[C@]1(C)CC2)N1CCS(=O)(=O)CC1 [Example 13, (1R,3S)-3-((((1R,3aS,5aR,5bR,7aR,9S,11aR,11bR,13aR,13bR)-3a-(((2S,3S)-2-(1,1-dioxidothiomorpholino)-3-hydroxybutyl)amino)-5a,5b,8,8,11a-pentamethyl-1-(1-methylcyclopropyl)icosahydro-1H-cyclopenta[a]chrysen-9-yl)oxy)carbonyl)-2,2-dimethylcyclobutane-1-carboxylic acid] | < 10 | < 10 | 1 to 50 |
| CC(C)S(=O)(=O)N1CCN([C@H](CN[C@]23CC[C@@H](C4(C)CC4)[C@@H]2[C@H]2CC[C@@H]4[C@@]5(C)CC[C@H](OC(=O)[C@H]6C[C@@H](C(=O)O)C6(C)C)C(C)(C)[C@@H]5CC[C@@]4(C)[C@]2(C)CC3)[C@@H](C)O)CC1 [Example 14, (1R,3S)-3-((((1R,3aS,5aR,5bR,7aR,9S,11aR,11bR,13aR,13bR)-3a-(((2R,3R)-3-hydroxy-2-(4-(isopropylsulfonyl)piperazin-1-yl)butyl)amino)-5a,5b,8,8,11a-pentamethyl-1-(1-methylcyclopropyl)icosahydro-1H-cyclopenta[a]chrysen-9-yl)oxy)carbonyl)-2,2-dimethylcyclobutane-1-carboxylic acid] | < 10 | < 10 | 1 to 50 |
| C=C(C)[C@@H]1CC[C@]2(NC[C@H]([C@@H](C)O)N3CCS(=O)(=O)CC3)CC[C@]3(C)[C@H](CC[C@@H]4[C@@]5(C)CC[C@H](OC(=O)[C@H]6C[C@@H](C(=O)O)C6(C)C)C(C)(C)[C@@H]5CC[C@]43C)[C@@H]12 [Example 15, (1R,3S)-3-((((1R,3aS,5aR,5bR,7aR,9S,11aR,11bR,13aR,13bR)-3a-(((2R,3R)-2-(1,1-dioxidothiomorpholino)-3-hydroxybutyl)amino)-5a,5b,8,8,11a-pentamethyl-1-(prop-1-en-2-yl)icosahydro-1H-cyclopenta[a]chrysen-9-yl)oxy)carbonyl)-2,2-dimethylcyclobutane-1-carboxylic acid] | < 10 | < 10 | 1 to 50 |
| CC1([C@@H]2CC[C@]3(NC[C@H](C(=O)O)N4CCS(=O)(=O)CC4)CC[C@]4(C)[C@H](CC[C@@H]5[C@@]6(C)CC[C@H](OC(=O)[C@H]7C[C@@H](C(=O)O)C7(C)C)C(C)(C)[C@@H]6CC[C@]54C)[C@@H]23)CC1 [Example 16, (1R,3S)-3-((((1R,3aS,5aR,5bR,7aR,9S,11aR,11bR,13aR,13bR)-3a-(((R)-2-carboxy-2-(1,1-dioxidothiomorpholino)ethyl)amino)-5a,5b,8,8,11a-pentamethyl-1-(1-methylcyclopropyl)icosahydro-1H-cyclopenta[a]chrysen-9-yl)oxy)carbonyl)-2,2-dimethylcyclobutane-1-carboxylic acid] | 10 to 20 | > 50 | > 100 |
| COCCOCC(=O)O[C@H](C)[C@@H](CN[C@]12CC[C@@H](C3(C)CC3)[C@@H]1[C@H]1CC[C@@H]3[C@@]4(C)CC[C@H](OC(=O)[C@H]5C[C@@H](C(=O)O)C5(C)C)C(C)(C)[C@@H]4CC[C@@]3(C)[C@]1(C)CC2)N1CCS(=O)(=O)CC1 [Example 17, (1R,3S)-3-((((1R,3aS,5aR,5bR,7aR,9S,11aR,11bR,13aR,13bR)-3a-(((2R,3R)-2-(1,1-dioxidothiomorpholino)-3-(2-(2-methoxyethoxy)acetoxy)butyl)amino)-5a,5b,8,8,11a-pentamethyl-1-(1-methylcyclopropyl)icosahydro-1H-cyclopentachrysen-9-yl)oxy)carbonyl)-2,2-dimethylcyclobutane-1-carboxylic acid] | < 10 | < 10 | 1 to 50 |
| COCCOCCOCCO[C@H](C)[C@@H](CN[C@]12CC[C@@H](C3(C)CC3)[C@@H]1[C@H]1CC[C@@H]3[C@@]4(C)CC[C@H](OC(=O)[C@H]5C[C@@H](C(=O)O)C5(C)C)C(C)(C)[C@@H]4CC[C@@]3(C)[C@]1(C)CC2)N1CCS(=O)(=O)CC1 [Example 18, (1R,3S)-3-((((1R,3aS,5aR,5bR,7aR,9S,11aR,11bR,13aR,13bR)-3a-(((12R,13R)-13-(1,1-dioxidothiomorpholino)-12-methyl-2,5,8,11-tetraoxatetradecan-14-yl)amino)-5a,5b,8,8,11a-pentamethyl-1-(1-methylcyclopropyl)icosahydro-1H-cyclopenta[a]chrysen-9-yl)oxy)carbonyl)-2,2-dimethylcyclobutane-1-carboxylic acid] | < 10 | < 10 | 1 to 50 |
| C=C(C)[C@@H]1CC[C@]2(NC[C@H]([C@@H](C)OC(=O)COCCOC)N3CCS(=O)(=O)CC3)CC[C@]3(C)[C@H](CC[C@@H]4[C@@]5(C)CC[C@H](OC(=O)[C@H]6C[C@@H](C(=O)O)C6(C)C)C(C)(C)[C@@H]5CC[C@]43C)[C@@H]12 [Example 19, (1R,3S)-3-((((1R,3aS,5aR,5bR,7aR,9S,11aR,11bR,13aR,13bR)-3a-(((2R,3R)-2-(1,1-dioxidothiomorpholino)-3-(2-(2-methoxyethoxy)acetoxy)butyl)amino)-5a,5b,8,8,11a-pentamethyl-1-(prop-1-en-2-yl)icosahydro-1H-cyclopentachrysen-9-yl)oxy)carbonyl)-2,2-dimethylcyclobutane-1-carboxylic acid] | < 10 | < 10 | 1 to 50 |
| C=C(C)[C@@H]1CC[C@]2(NC[C@H]([C@@H](C)O)N3CCS(=O)(=O)CC3)CC[C@]3(C)[C@H](CC[C@@H]4[C@@]5(C)CC[C@H](OC(=O)CC(C)(C)C(=O)O)C(C)(C)[C@@H]5CC[C@]43C)[C@@H]12 [Example 20, 4-(((1R,3aS,5aR,5bR,7aR,9S,11aR,11bR,13aR,13bR)-3a-(((2R,3R)-2-(1,1-dioxidothiomorpholino)-3-hydroxybutyl)amino)-5a,5b,8,8,11a-pentamethyl-1-(prop-1-en-2-yl)icosahydro-1H-cyclopentachrysen-9-yl)oxy)-2,2-dimethyl-4-oxobutanoic acid] | < 10 | < 10 | 1 to 50 |
